Measurements: US20260297080A1, “BICYCLIC COMPOUNDS AS CDK INHIBITORS” (BeOne Medicines I GmbH, priority 2022, published 2026)

What was measured:
CDK1/Cyclin B1 = CDK1/Cyclin B1 (Homo sapiens, UniProt P06493); assay: CDK1/Cyclin B1 Biochemical Assay (TR-FRET), 0.015 mM ATP; conditions: 0.15 μM Rb (Ser780)-biotin substrate, pH7.0, 60 min preincubation, 120 min reaction, room temperature
Outline: (§1)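 TR-FRET readout: 665/620 nm ratio from Eu-cryptate anti-pRb(Ser780) antibody plus streptavidin-XL665, converted to % inhibition and fitted (4-parameter logistic) for IC50. Reactions used 0.15 μM biotinylated Rb (Ser780) substrate, compound 0–10 μM, 60 min enzyme–compound preincubation, then 120 min reaction at room temperature.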

CDK2/Cyclin E1 = CDK2/Cyclin E1 (Homo sapiens, UniProt P24941); assay: CDK2/Cyclin E1 Biochemical Assay (TR-FRET), 0.060 mM ATP; conditions: 0.15 μM Rb (Ser780)-biotin substrate, pH7.0, 60 min preincubation, 120 min reaction, room temperature
Outline: as §1

CDK1/Cyclin B1, sequence (P06493 whole entry): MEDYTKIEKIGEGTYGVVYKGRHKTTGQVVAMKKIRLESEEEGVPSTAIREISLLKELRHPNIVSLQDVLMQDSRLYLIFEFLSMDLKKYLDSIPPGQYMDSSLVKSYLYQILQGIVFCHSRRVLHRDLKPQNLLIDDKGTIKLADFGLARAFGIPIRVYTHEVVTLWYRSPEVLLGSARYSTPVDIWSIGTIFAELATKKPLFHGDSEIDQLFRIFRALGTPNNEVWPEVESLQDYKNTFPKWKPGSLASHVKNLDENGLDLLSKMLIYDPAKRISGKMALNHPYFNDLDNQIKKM
CDK1/Cyclin B1, sequence (P14635 whole entry partner): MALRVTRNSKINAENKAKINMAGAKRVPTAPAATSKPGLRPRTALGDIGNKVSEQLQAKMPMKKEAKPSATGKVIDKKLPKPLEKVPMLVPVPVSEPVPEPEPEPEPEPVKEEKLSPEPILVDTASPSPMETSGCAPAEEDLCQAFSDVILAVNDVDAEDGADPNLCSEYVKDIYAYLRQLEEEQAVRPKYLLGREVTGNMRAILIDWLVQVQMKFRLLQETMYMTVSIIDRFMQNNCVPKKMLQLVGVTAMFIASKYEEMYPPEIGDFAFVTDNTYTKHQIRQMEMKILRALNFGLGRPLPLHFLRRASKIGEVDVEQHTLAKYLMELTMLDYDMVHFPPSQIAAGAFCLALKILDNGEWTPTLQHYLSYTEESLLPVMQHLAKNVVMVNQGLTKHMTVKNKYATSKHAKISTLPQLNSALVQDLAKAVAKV

IC50 (CDK1/Cyclin B1) [nM]	IC50 (CDK2/Cyclin E1) [nM]	Structure (SMILES)
120	1.6	CN1Cc2c(ccc(Nc3cc([C@@H]4CC[C@H](OC(=O)NC5(C)CC5)C4)[nH]n3)c2F)S1(=O)=O (relative stereo) [Example 124, cis-3-(3-((4-fluoro-2-methyl-1,1-dioxido-2,3-dihydrobenzo[d]isothiazol-5-yl)amino)-1H-pyrazol-5-yl)cyclopentyl(1-methylcyclopropyl)carbamate]
261	8.3	CCCNC(=O)O[C@H]1CC[C@@H](c2cc(Nc3ccc4c(c3F)CN(CCO)S4(=O)=O)n[nH]2)C1 (relative stereo) [Example 126, cis-3-(3-((4-fluoro-2-(2-hydroxyethyl)-1,1-dioxido-2,3-dihydrobenzo[d]isothiazol-5-yl)amino)-1H-pyrazol-5-yl)cyclopentyl propylcarbamate]
176	1.9	CC[C@H](C)NC(=O)O[C@H]1CC[C@@H](c2cc(Nc3ccc4c(c3F)CN(CCO)S4(=O)=O)n[nH]2)C1 (relative stereo) [Example 127, cis-3-(3-((4-fluoro-2-(2-hydroxyethyl)-1,1-dioxido-2,3-dihydrobenzo[d]isothiazol-5-yl)amino)-1H-pyrazol-5-yl)cyclopentyl((S)-sec-butyl)carbamate]
241	5.7	[2H]C([2H])([2H])N1Cc2c(ccc(Nc3cc([C@@H]4CC[C@H](OC(=O)NCCC)C4)[nH]n3)c2F)S1(=O)=O (relative stereo) [Example 130, cis-3-(3-((4-fluoro-2-(methyl-d3)-1,1-dioxido-2,3-dihydrobenzo[d]isothiazol-5-yl)amino)-1H-pyrazol-5-yl)cyclopentyl propylcarbamate]
152	1.4	[2H]C([2H])([2H])N1Cc2c(ccc(Nc3cc([C@@H]4CC[C@H](OC(=O)N[C@@H](C)CC)C4)[nH]n3)c2F)S1(=O)=O (relative stereo) [Example 131, cis-3-(3-((4-fluoro-2-(methyl-d3)-1,1-dioxido-2,3-dihydrobenzo[d]isothiazol-5-yl)amino)-1H-pyrazol-5-yl)cyclopentyl((S)-sec-butyl)carbamate]
320	4.3	CC1(NC(=O)O[C@H]2CC[C@@H](c3cc(Nc4ccc5c(c4F)CN(C4COC4)S5(=O)=O)n[nH]3)C2)CC1 (relative stereo) [Example 135, cis-3-(3-((4-fluoro-2-(oxetan-3-yl)-1,1-dioxido-2,3-dihydrobenzo[d]isothiazol-5-yl)amino)-1H-pyrazol-5-yl)cyclopentyl(1-methylcyclopropyl)carbamate]
457	22	CCCNC(=O)O[C@H]1CC[C@@H](c2cc(Nc3ccc4c(c3F)CN(C3COC3)S4(=O)=O)n[nH]2)C1 (relative stereo) [Example 136, cis-3-(3-((4-fluoro-2-(oxetan-3-yl)-1,1-dioxido-2,3-dihydrobenzo[d]isothiazol-5-yl)amino)-1H-pyrazol-5-yl)cyclopentyl propylcarbamate]
157	8	CCNC(=O)O[C@H]1CC[C@@H](c2cc(Nc3ccc4c(c3F)CNS4(=O)=O)n[nH]2)C1 (relative stereo) [Example 141, cis-3-(3-((4-fluoro-1,1-dioxido-2,3-dihydrobenzo[d]isothiazol-5-yl)amino)-1H-pyrazol-5-yl)cyclopentyl ethylcarbamate]
302	3.9	C[C@]1(O)CC[C@@H](NC(=O)O[C@H]2CC[C@@H](c3cc(Nc4ccc5c(c4F)CNS5(=O)=O)n[nH]3)C2)CC1 (relative stereo) [Example 144, cis-3-(3-((4-fluoro-1,1-dioxido-2,3-dihydrobenzo[d]isothiazol-5-yl)amino)-1H-pyrazol-5-yl)cyclopentyl((1s,4s)-4-hydroxy-4-methylcyclohexyl)carbamate]
267	14	C[C@H]1[C@H](O)CN1C(=O)O[C@H]1CC[C@@H](c2cc(Nc3ccc4c(c3F)CNS4(=O)=O)n[nH]2)C1 (relative stereo) [Example 145, cis-3-(3-((4-fluoro-1,1-dioxido-2,3-dihydrobenzo[d]isothiazol-5-yl)amino)-1H-pyrazol-5-yl)cyclopentyl(2S,3R)-3-hydroxy-2-methylazetidine-1-carboxylate]
323	8.1	CC(C)(O)CNC(=O)O[C@H]1CC[C@@H](c2cc(Nc3ccc4c(c3F)CNS4(=O)=O)n[nH]2)C1 (relative stereo) [Example 146, cis-3-(3-((4-fluoro-1,1-dioxido-2,3-dihydrobenzo[d]isothiazol-5-yl)amino)-1H-pyrazol-5-yl)cyclopentyl(2-hydroxy-2-methylpropyl)carbamate]
606	9.1	CC(NC(=O)O[C@H]1CC[C@@H](c2cc(Nc3ccc4c(c3F)CNS4(=O)=O)n[nH]2)C1)C1COC1 (relative stereo) [Example 147, cis-3-(3-((4-fluoro-1,1-dioxido-2,3-dihydrobenzo[d]isothiazol-5-yl)amino)-1H-pyrazol-5-yl)cyclopentyl(1-(oxetan-3-yl)ethyl)carbamate]
523	44	O=C(NCC1COC1)O[C@H]1CC[C@@H](c2cc(Nc3ccc4c(c3F)CNS4(=O)=O)n[nH]2)C1 (relative stereo) [Example 148, cis-3-(3-((4-fluoro-1,1-dioxido-2,3-dihydrobenzo[d]isothiazol-5-yl)amino)-1H-pyrazol-5-yl)cyclopentyl(oxetan-3-ylmethyl)carbamate]
666	42	O=C(NC1COC1)O[C@H]1CC[C@@H](c2cc(Nc3ccc4c(c3F)CNS4(=O)=O)n[nH]2)C1 (relative stereo) [Example 149, cis-3-(3-((4-fluoro-1,1-dioxido-2,3-dihydrobenzo[d]isothiazol-5-yl)amino)-1H-pyrazol-5-yl)cyclopentyl oxetan-3-ylcarbamate]
24	0.3	O=C(NC12CC(C1)C2)O[C@H]1CC[C@@H](c2cc(Nc3ccc4c(c3F)CNS4(=O)=O)n[nH]2)C1 (relative stereo) [Example 150, cis-3-(3-((4-fluoro-1,1-dioxido-2,3-dihydrobenzo[d]isothiazol-5-yl)amino)-1H-pyrazol-5-yl)cyclopentyl bicyclo[1.1.1]pentan-1-ylcarbamate]
668	80	O=C(NC1CC2(CCC2)C1)O[C@H]1CC[C@@H](c2cc(Nc3ccc4c(c3F)CNS4(=O)=O)n[nH]2)C1 (relative stereo) [Example 151, cis-3-(3-((4-fluoro-1,1-dioxido-2,3-dihydrobenzo[d]isothiazol-5-yl)amino)-1H-pyrazol-5-yl)cyclopentyl spiro[3.3]heptan-2-ylcarbamate]
324	3.6	O=C(NC1CCC12CC2)O[C@H]1CC[C@@H](c2cc(Nc3ccc4c(c3F)CNS4(=O)=O)n[nH]2)C1 (relative stereo) [Example 152, cis-3-(3-((4-fluoro-1,1-dioxido-2,3-dihydrobenzo[d]isothiazol-5-yl)amino)-1H-pyrazol-5-yl)cyclopentyl spiro[2.3]hexan-4-ylcarbamate]
1120	91	CNC(=O)O[C@H]1CC[C@@H](c2cc(Nc3ccc4c(c3F)CNS4(=O)=O)n[nH]2)C1 (relative stereo) [Example 153, cis-3-(3-((4-fluoro-1,1-dioxido-2,3-dihydrobenzo[d]isothiazol-5-yl)amino)-1H-pyrazol-5-yl)cyclopentyl methylcarbamate]
13	1.3	CC1(C)CCN1C(=O)O[C@H]1CC[C@@H](c2cc(Nc3ccc4c(c3F)CNS4(=O)=O)n[nH]2)C1 (relative stereo) [Example 155, cis-3-(3-((4-fluoro-1,1-dioxido-2,3-dihydrobenzo[d]isothiazol-5-yl)amino)-1H-pyrazol-5-yl)cyclopentyl 2,2-dimethylazetidine-1-carboxylate]
76	1.7	CC(NC(=O)O[C@H]1CC[C@@H](c2cc(Nc3ccc4c(c3F)CNS4(=O)=O)n[nH]2)C1)C1CC1 (relative stereo) [Example 156, cis-3-(3-((4-fluoro-1,1-dioxido-2,3-dihydrobenzo[d]isothiazol-5-yl)amino)-1H-pyrazol-5-yl)cyclopentyl(1-cyclopropylethyl)carbamate]
240	15	O=C(NC1CCC1)O[C@H]1CC[C@@H](c2cc(Nc3ccc4c(c3F)CNS4(=O)=O)n[nH]2)C1 (relative stereo) [Example 157, cis-3-(3-((4-fluoro-1,1-dioxido-2,3-dihydrobenzo[d]isothiazol-5-yl)amino)-1H-pyrazol-5-yl)cyclopentyl cyclobutylcarbamate]
30	1	CC(C)(C)NC(=O)O[C@H]1CC[C@@H](c2cc(Nc3ccc4c(c3F)CNS4(=O)=O)n[nH]2)C1 (relative stereo) [Example 159, cis-3-(3-((4-fluoro-1,1-dioxido-2,3-dihydrobenzo[d]isothiazol-5-yl)amino)-1H-pyrazol-5-yl)cyclopentyl tert-butylcarbamate]
579	105	O=C(NC1CC2(CC2)C1)O[C@H]1CC[C@@H](c2cc(Nc3ccc4c(c3F)CNS4(=O)=O)n[nH]2)C1 (relative stereo) [Example 160, cis-3-(3-((4-fluoro-1,1-dioxido-2,3-dihydrobenzo[d]isothiazol-5-yl)amino)-1H-pyrazol-5-yl)cyclopentyl spiro[2.3]hexan-5-ylcarbamate]
332	6.5	COCC(C)NC(=O)O[C@H]1CC[C@@H](c2cc(Nc3ccc4c(c3F)CNS4(=O)=O)n[nH]2)C1 (relative stereo) [Example 161, cis-3-(3-((4-fluoro-1,1-dioxido-2,3-dihydrobenzo[d]isothiazol-5-yl)amino)-1H-pyrazol-5-yl)cyclopentyl(1-methoxypropan-2-yl)carbamate]
